According to patent US6287813A, “Antibiotic-based gene regulation system” (Cistronics Cell Technology GmbH, priority 1999, dated 2001):

Assays:
PIT/PPIR system = target: T1, PIT/PPIR system (Streptomyces coelicolor, UniProt Q9ADN3); assay: Dose-response of PI-dependent SEAP expression in CHO-PIT1-SEAP; assay type: cell-based; conditions: 48 h
T1 construct: pMF156/pTWIN in CHO cells, PPIR-SEAP or GFP reporter
T1 sequence (Q9ADN3 1-252): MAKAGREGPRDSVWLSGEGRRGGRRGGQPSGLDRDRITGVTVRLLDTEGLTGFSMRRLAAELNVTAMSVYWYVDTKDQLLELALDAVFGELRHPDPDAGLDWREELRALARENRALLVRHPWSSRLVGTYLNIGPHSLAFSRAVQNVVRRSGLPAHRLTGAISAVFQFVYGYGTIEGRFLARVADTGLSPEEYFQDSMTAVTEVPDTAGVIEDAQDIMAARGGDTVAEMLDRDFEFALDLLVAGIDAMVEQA
Description: FIG. 2: Dose-response curve for PI-dependent gene expression. The cell line CHO-PIT1-SEAP was grown for 48 h at different PI concentrations (ng/ml). The relative SEAP production is shown over 5 orders of magnitude of PI concentration.
Chinese hamster ovary cells (CHO-K1, ATCC: CCL 61), Baby hamster kidney cells (BHK-21, ATCC: CRL-8544), and HeLa cells (ATCC: CRL-7923) as well as stable cell lines CHO-PIT1, CHO-PIT2, CHO-TWIN195, CHO-TWIN1108 and CHO-PIT1-SEAP were cultured as described before (Fussenegger et al., 1998, Nat. Biotechnol. 16,468-472) in the presence of appropriate antibiotics: G418 400 μg/ml; zeocin 100 μg/ml. Optimized CaPO4 protocols were used for high efficiency transient transfection of all cell lines (id). Transient transfected cells were routinely analyzed after 48 h for GFP or SEAP expression using fluorescence microscopy and p-nitrophenolphosphate-based light absorbance timecourse, respectively, as described before (Fussenegger et al., 1998, Nat. Biotechnol. 16, 468-472; Berger et al., 1988, Gene 66, 1-10 b). For construction of stable CHO-PIT and CHO-TWIN cell lines, CHO-K1 was cotransfected either with pMF156 or pTWIN1 and pSV2neo carrying the G418 resistance gene. CHO-PIT1-SEAP was constructed by cotransfection of pMF172 and pZeoSV2 (Invitrogen). For assessment of dose-response characteristics of PPIR -regulated gene expression, CHO-PIT1-SEAP were cultured at cell densities of 150,000/ml for 48 at various PI concentrations. The mixed populations were cloned using FACS-mediated single-cell-sorting (FACStar^Plus; Beckton Dickinson). Gel retardation assay were performed as described (Salah-Bey et al., 1995, supra) using Pip purified from an overproducing strain of E. coli. Pip (0.02 pmol) was titrated with a range of antibiotic concentrations in a reaction volume of 20 μl. […]
The levels of PPIR -regulated gene expression could be controlled by varying the concentrations of PI used for induction. This was assessed using a stable CHO cell line (CHO-PIT1-SEAP) which expresses PPIR -SEAP (pMF172) and contains also a constitutive PIT expression vector (pMF156). […]

[1] = tested on: PIT-dependent promoters PPIR, PPIR2, PPIR3; assay: SEAP expression from modified PI-responsive promoters (PPIR, PPIR2, PPIR3); assay type: cell-based, Streptomyces coelicolor
Chain of PIT-dependent promoters PPIR, PPIR2, PPIR3 (as listed by the source): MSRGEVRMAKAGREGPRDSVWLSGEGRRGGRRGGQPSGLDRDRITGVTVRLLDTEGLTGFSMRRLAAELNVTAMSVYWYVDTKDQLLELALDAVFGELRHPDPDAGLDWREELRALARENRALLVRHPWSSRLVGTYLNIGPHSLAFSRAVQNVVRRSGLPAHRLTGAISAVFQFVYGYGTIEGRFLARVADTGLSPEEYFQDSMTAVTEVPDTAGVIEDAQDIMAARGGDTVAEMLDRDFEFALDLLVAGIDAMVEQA
Description: The naturally occurring Pptr sequence contains only three distinct Pip binding sites which could accommodate PIT. In order to enhance maximal expression from streptogramin-responsive system, we constructed PI-responsive promoters with two (PPIR2) and three (PPIR3) ptr binding motifs with a total of 6 and 9 Pip binding sites, respectively.
Both DNA fragments were digested with AatII and Sse8387I (corresponding restriction sites are shown in bold) and ligated to the corresponding sites of pMF172 (PPIR -SEAP; AatII/Sse8387I) thereby replacing the single Pip binding sequence (Pptr of S. pristinaespiralis; Salah-Bey et al., 1995; Salah-Bey and Thompson, 1995) to result in plasmids pMF198 (PPIR2 -SEAP) and pMF199 (PPIR3 -SEAP). […]

Question: Which results are given for pristinamycin I [PI]?
Answer: PI concentration at which PIT/PPIR is fully induced (PIT/PPIR system): < 10 ng/mL; PI concentration at which PIT/PPIR is repressed (lowest SEAP expression) (PIT/PPIR system): > 500 ng/mL; PI concentration window in which gene expression can be adjusted (PIT/PPIR system): 10 to 500 ng/mL; SEAP expression in the presence of PI ([1]; PPIR2 -SEAP (pMF198)): 0.073 ± 0.004; SEAP expression in the presence of PI ([1]; PPIR2 -SEAP (pMF199) as printed): 0.09 ± 0.008; SEAP expression in the presence of PI ([1]; PPIR -SEAP (pMF172)): 0.04 ± 0.019
